# Measurements taken from patent US8383581B2, “Short-chain peptides as parathyroid hormone (PTH) receptor agonist” (Cadila Healthcare Limited, priority 2009, dated 2013).
# Where a SMILES comes first, the peptide text is derived from it. [ ]: non-standard residue; d: D form. ξ: configuration not given here. ξαMePhe(2,6-F2) = CC(N)(Cc1c(F)cccc1F)C(=O)O; ξαMePhe(2-F) = CC(N)(Cc1ccccc1F)C(=O)O; hArg = N=C(N)NCCCC[C@H](N)C(=O)O; Cit = NC(=O)NCCC[C@H](N)C(=O)O; Nle = CCCC[C@H](N)C(=O)O; Orn = NCCC[C@H](N)C(=O)O; Ac5c = NC1(C(=O)O)CCCC1; Aib = CC(C)(N)C(=O)O
# System: ovariectomised (OVX) rats
# Assay: In vivo anti-osteoporosis activity testing in OVX rat model (serum calcium, phosphate, bone parameters)
# Set-up: species or system Female Wistar Rats
# Settings: po
# Description: c) In Vivo Anti-Osteoporosis Activity Testing in OVX Rat Model: The ovariectomised (OVX) rats were used to study anti-osteoporosis activity of test compounds (short-chain peptides) in vivo. The OVX rats develop osteopenia due to ovarian hormone deficiency. Osteopenia can be detected as early as 14 days post OVX, increase for the next 100 days and then stabilised (Wronski T. J., et al., Calcif. Tissue Int., 43(3), 1988, 179-183). Detailed Study Protocol to Evaluate the Effects of Anabolic Therapy on Bone Markers and Histomorphometry in OVX Animals: 10 to 11 weeks old Female Wistar Rats (150-200 g) were used. The animals were kept in individually ventilated cages in a room with controlled temperature (23°±3° C.), lighting (12:12 h light-dark cycle) and relative humidity (55±10%). Animals had free access to standard rat chow and water. Protocol for use of animals for conducting this study has been reviewed and approved by Institutional Animal Ethics Committee (IAEC). The animals were marked with picric acid for identification and acclimatized to experimental room conditions for 2 days prior to initiation of the study. For the induction of osteoporosis, rats were bilaterally ovariectomised under anesthesia. For Ovariectomy, Incision was made on dorsa-lateral side near lumbar region of animal. After that, ovary was excised and the veins were tied with ligature before removing ovary to prevent blood loss. Then incision was sutured back with ligature. After Bilateral ovariectomy, animals were allowed to rest for 4 weeks. They were then divided into different groups (n=9) based on their body weight. The groups consisted of a no treatment control, PTH as standard and one or two groups of test compounds (short-chain peptides). The treatment was given for the duration of 6 weeks. At the last day of treatment animals were kept overnight in metabolic cages under fasting for the collection of Urine. Next day, blood was collected after 24 hours of last dosing and animals were sacrificed. Changes in biochemical parameters and bone turnover parameters (Increase in serum Calcium and decrease in Phosphate levels, Acid Phosphatase and TRAP) were evaluated in the urine and serum. After sacrificing, intact femur and tibial bones are removed and cleaned from adherent tissues, muscles and tendons; weighed and collected in formal saline (10% formaldehyde solution). Lumbar vertebra (L5) was excised, carefully cleaned and collected in formal saline. Femur, tibia and Lumbar vertebra-5 (L5) were later processed for histomorphometric evaluation (Zhang L., et al., Tohoku J Exp Med., 1998, 186(2), 131-41; Tanizawa T., et al., Toxicol Lett., 1998, 102, 399-403).
SMILES,% decrease in serum PO4 Levels (mg/dl) vs control (3 mg/kg) [%],% increase in serum Ca^2+ Levels (mg/dl) vs control (3 mg/kg) [%],% decrease in serum PO4 Levels (mg/dl) vs control (0.1 mg/kg) [%],% increase in serum Ca^2+ Levels (mg/dl) vs control (0.1 mg/kg) [%],also measured
"CCCC[C@H](NC(=O)C(C)(Cc1c(F)cccc1F)NC(=O)[C@H](CCC(N)=O)NC(=O)[C@@H](NC(=O)[C@H](CCC(=O)O)NC(=O)C1(NC(=O)[C@@H](NC(=O)C2(N)CCCC2)C(C)C)CCCC1)[C@@H](C)CC)C(=O)N[C@@H](Cc1c[nH]cn1)C(=O)N[C@@H](CCC(N)=O)C(=O)N[C@@H](CCCCNC(=N)N)C(=O)NC(C)(C)C(=O)N[C@@H](CCCCN)C(=O)NC(C)(Cc1c(F)cccc1F)C(N)=O (stereo partly drawn) [Seq. ID. 117] (H-[Ac5c]V[Ac5c]EIQ[ξαMePhe(2,6-F2)][Nle]HQ[hArg][Aib]K[ξαMePhe(2,6-F2)]-NH2)",99,110,–,–,–
"CCCC[C@H](NC(=O)C(C)(Cc1c(F)cccc1F)NC(=O)[C@H](CCC(N)=O)NC(=O)[C@@H](NC(=O)[C@H](CCC(=O)O)NC(=O)C1(NC(=O)[C@@H](NC(=O)C2(N)CCCC2)C(C)C)CCCC1)[C@@H](C)CC)C(=O)N[C@@H](Cc1c[nH]cn1)C(=O)N[C@@H](CCC(N)=O)C(=O)N[C@@H](CCCCNC(=N)N)C(=O)NC(C)(C)C(=O)N[C@@H](CCCNC(N)=O)C(=O)NC(C)(Cc1c(F)cccc1F)C(N)=O (stereo partly drawn) [Seq. ID. 158] (H-[Ac5c]V[Ac5c]EIQ[ξαMePhe(2,6-F2)][Nle]HQ[hArg][Aib][Cit][ξαMePhe(2,6-F2)]-NH2)",–,–,82,100,–
"CCCC[C@H](NC(=O)C(C)(Cc1ccccc1F)NC(=O)[C@H](CCC(N)=O)NC(=O)[C@@H](NC(=O)[C@H](CCC(=O)O)NC(=O)C(C)(C)NC(=O)[C@@H](NC(=O)C1(N)CCCC1)C(C)C)[C@@H](C)CC)C(=O)N[C@@H](Cc1c[nH]cn1)C(=O)N[C@@H](CCC(N)=O)C(=O)N[C@@H](CCCCNC(=N)N)C(=O)NC(C)(C)C(=O)NC(C)(Cc1c(F)cccc1F)C(=O)NC(C)(Cc1ccccc1F)C(N)=O (stereo partly drawn) [Seq. ID. 210] (H-[Ac5c]V[Aib]EIQ[ξαMePhe(2-F)][Nle]HQ[hArg][Aib][ξαMePhe(2,6-F2)][ξαMePhe(2-F)]-NH2)",–,–,–,–,% decrease in serum PO4 Levels (mg/dl) vs control (1 mg/kg): 99%; % increase in serum Ca^2+ Levels (mg/dl) vs control (1 mg/kg): 96%
"CCCC[C@H](NC(=O)C(C)(Cc1c(F)cccc1F)NC(=O)[C@H](CCC(N)=O)NC(=O)[C@@H](NC(=O)[C@H](CCC(=O)O)NC(=O)C(C)(C)NC(=O)[C@@H](NC(=O)C(C)(C)N)C(C)C)[C@@H](C)CC)C(=O)N[C@@H](Cc1c[nH]cn1)C(=O)N[C@@H](CCC(N)=O)C(=O)N[C@@H](CCCN)C(=O)N[C@@H](C)C(=O)N[C@@H](CCCNC(N)=O)C(=O)NC(C)(Cc1c(F)cccc1F)C(N)=O (stereo partly drawn) [Seq. ID. 293] (H-[Aib]V[Aib]EIQ[ξαMePhe(2,6-F2)][Nle]HQ[Orn]A[Cit][ξαMePhe(2,6-F2)]-NH2)",–,–,–,–,% decrease in serum PO4 Levels (mg/dl) vs control (5 mg/kg): 75%; % increase in serum Ca^2+ Levels (mg/dl) vs control (5 mg/kg): 67%
"CCCC[C@H](NC(=O)C(C)(Cc1c(F)cccc1F)NC(=O)[C@H](CCC(N)=O)NC(=O)[C@@H](NC(=O)[C@H](CCC(=O)O)NC(=O)C(C)(C)NC(=O)[C@@H](NC(=O)C(C)(C)N)C(C)C)[C@@H](C)CC)C(=O)N[C@@H](Cc1c[nH]cn1)C(=O)N[C@@H](CCC(N)=O)C(=O)N[C@@H](CCCN)C(=O)N[C@@H](C)C(=O)NC(C)(Cc1c(F)cccc1F)C(=O)NC(C)(Cc1ccccc1F)C(N)=O (stereo partly drawn) [Seq. ID. 317] (H-[Aib]V[Aib]EIQ[ξαMePhe(2,6-F2)][Nle]HQ[Orn]A[ξαMePhe(2,6-F2)][ξαMePhe(2-F)]-NH2)",93,102,–,–,–
"CCCC[C@H](NC(=O)C(C)(Cc1c(F)cccc1F)NC(=O)[C@H](CCC(N)=O)NC(=O)[C@@H](NC(=O)[C@H](CCC(=O)O)NC(=O)C(C)(C)NC(=O)[C@@H](NC(=O)C1(N)CCCC1)C(C)C)[C@@H](C)CC)C(=O)N[C@@H](Cc1c[nH]cn1)C(=O)N[C@@H](CCC(N)=O)C(=O)N[C@@H](CCCNC(N)=O)C(=O)N[C@@H](C)C(=O)NC(C)(Cc1c(F)cccc1F)C(=O)NC(C)(Cc1c(F)cccc1F)C(N)=O (stereo partly drawn) [Seq. ID. 391] (H-[Ac5c]V[Aib]EIQ[ξαMePhe(2,6-F2)][Nle]HQ[Cit]A[ξαMePhe(2,6-F2)][ξαMePhe(2,6-F2)]-NH2)",–,–,59,82,–
